Measurements published in ChEMBL document CHEMBL1137667, “Pyrrolidine dithiocarbamate and diethyldithiocarbamate are active against growing and nongrowing persister Mycobacterium tuberculosis” (2007).
Values after ≈ are worked out from the molar mass of the structure shown. Active and inactive are the calls of the source. The rule behind the calls is not given here.

Legend:
[1] = test system: Mycobacterium tuberculosis; assay: Antimicrobial activity against 3 weeks old culture of Mycobacterium tuberculosis H37Ra assessed as colony forming unit in aerobic condition at 10.3 ug/ml for 3 hrs; format: functional
[2] = test system: Mycobacterium tuberculosis; assay: Antimicrobial activity against 3 weeks old culture of Mycobacterium tuberculosis H37Ra assessed as colony forming unit in hypoxic condition at 10.3 ug/ml for 3 hrs; format: functional
[3] = test system: Mycobacterium tuberculosis; assay: Antimicrobial activity against Mycobacterium tuberculosis H37Rv; format: functional
[4] = test system: Mycobacterium tuberculosis; assay: Antimicrobial activity against 1 month old culture of Mycobacterium tuberculosis H37Ra assessed as colony forming unit at 10 ug/ml for 3 days at pH 5.5; format: functional
[5] = test system: Mycobacterium tuberculosis; assay: Antimicrobial activity against 2 months old culture of Mycobacterium tuberculosis H37Ra assessed as colony forming unit at 4.5 ug/ml for 3 days at pH 7; format: functional
[6] = test system: Mycobacterium tuberculosis; assay: Antimicrobial activity against Mycobacterium tuberculosis infected in human monocytes; format: functional
[7] = test system: Mycobacterium tuberculosis; assay: Antimicrobial activity against 2 months old culture of Mycobacterium tuberculosis H37Ra assessed as colony forming unit at 5 ug/ml for 3 days at pH 5.5; format: functional
[8] = test system: Mycobacterium tuberculosis; assay: Antimicrobial activity against 3 weeks old culture of Mycobacterium tuberculosis H37Ra assessed as colony forming unit at 4.5 ug/ml for 3 days at pH 7; format: functional
[9] = test system: Mycobacterium tuberculosis; assay: Antimicrobial activity against 2 months old culture of Mycobacterium tuberculosis H37Ra assessed as colony forming unit at 4.5 ug/ml for 3 days at pH 5.5; format: functional
[10] = test system: Mycobacterium tuberculosis; assay: Antimicrobial activity against 3 weeks old culture of Mycobacterium tuberculosis H37Ra assessed as colony forming unit in hypoxic condition at 4.5 ug/ml for 3 hrs; format: functional
[11] = test system: Mycobacterium tuberculosis; assay: Antimicrobial activity against 3 weeks old culture of Mycobacterium tuberculosis H37Rv assessed as 1:4 serum inhibitory titers treated with blood from 100 mg/kg, po dosed Swiss mouse collected after 2 hrs; format: functional, organism-based; parameters: dose 100 mg/kg
[12] = test system: Mycobacterium tuberculosis; assay: Antimicrobial activity against 3 weeks old culture of Mycobacterium tuberculosis H37Ra assessed as colony forming unit at 4.5 ug/ml for 3 days at pH 5.5; format: functional
[13] = test system: Mycobacterium tuberculosis; assay: Antimicrobial activity against 3 weeks old culture of Mycobacterium tuberculosis H37Ra assessed as colony forming unit in aerobic condition at 4.5 ug/ml for 3 hrs; format: functional
[14] = test system: Mycobacterium tuberculosis; assay: Antimicrobial activity against 3 weeks old culture of Mycobacterium tuberculosis H37Rv assessed as 1:2 serum inhibitory titers treated with blood from 100 mg/kg, po dosed Swiss mouse collected after 2 hrs; format: functional, organism-based; parameters: dose 100 mg/kg
[15] = test system: Mycobacterium tuberculosis; assay: Antimicrobial activity against Mycobacterium tuberculosis H37Rv assessed as drug concentration required to kill 99% of the inoculum; format: functional
[16] = test system: Mycobacterium tuberculosis; assay: Antimicrobial activity against 3 weeks old culture of Mycobacterium tuberculosis H37Rv assessed as 1:16 serum inhibitory titers treated with blood from 25 mg/kg, po dosed Swiss mouse collected after 1 hrs; format: functional, organism-based; parameters: dose 25 mg/kg
[17] = test system: Mycobacterium tuberculosis; assay: Antimicrobial activity against 2 weeks old culture of Mycobacterium tuberculosis H37Ra assessed as colony forming unit at 100 ug/ml for 3 days at pH 5.5; format: functional
[18] = test system: Mycobacterium tuberculosis; assay: Antimicrobial activity against 2 months old culture of Mycobacterium tuberculosis H37Ra assessed as colony forming unit at 100 ug/ml for 3 days at pH 5.5; format: functional
[19] = test system: Mycolicibacterium smegmatis; assay: Antimicrobial activity against Mycobacterium smegmatis mc26; format: functional
[20] = test system: Mycobacterium tuberculosis; assay: Antimicrobial activity against 2 months old culture of Mycobacterium tuberculosis H37Ra assessed as colony forming unit at 3.3 ug/ml for 3 days at pH 7; format: functional
[21] = test system: Mycobacterium tuberculosis; assay: Antimicrobial activity against 3 weeks old culture of Mycobacterium tuberculosis H37Ra assessed as colony forming unit at 3.3 ug/ml for 3 days at pH 5.5; format: functional
[22] = test system: Mycobacterium tuberculosis; assay: Antimicrobial activity against 3 weeks old culture of Mycobacterium tuberculosis H37Ra assessed as colony forming unit at 3.3 ug/ml for 3 days at pH 7; format: functional
[23] = test system: Mycobacterium tuberculosis; assay: Antimicrobial activity against 2 months old culture of Mycobacterium tuberculosis H37Ra assessed as colony forming unit at 3.3 ug/ml for 3 days at pH 5.5; format: functional
[24] = test system: Mycobacterium tuberculosis; assay: Antimicrobial activity against 3 weeks old culture of Mycobacterium tuberculosis H37Ra assessed as colony forming unit in aerobic condition at 3.3 ug/ml for 3 hrs; format: functional
[25] = test system: Mycobacterium tuberculosis; assay: Antimicrobial activity against 3 weeks old culture of Mycobacterium tuberculosis H37Ra assessed as colony forming unit in hypoxic condition at 3.3 ug/ml for 3 hrs; format: functional
Escherichia coli = assay: Antimicrobial activity against Escherichia coli DH5alpha; format: functional
[26] = test system: Mycobacterium tuberculosis; assay: Antimicrobial activity against 2 months old culture of Mycobacterium tuberculosis H37Ra assessed as colony forming unit at 10 ug/ml for 3 days at pH 5.5; format: functional
[27] = test system: Mycobacterium tuberculosis; assay: Antimicrobial activity against 3 weeks old culture of Mycobacterium tuberculosis H37Ra assessed as colony forming unit in hypoxic condition at 2 ug/ml for 3 hrs; format: functional
[28] = test system: Mycobacterium tuberculosis; assay: Antimicrobial activity against 3 weeks old culture of Mycobacterium tuberculosis H37Ra assessed as colony forming unit in aerobic condition at 2 ug/ml for 3 hrs; format: functional

## C(=NC1CCCCC1)=NC1CCCCC1 [DICYCLOHEXYLCARBODIIMIDE]
[1]
  log10CFU/ml: 7.43
[2]
  log10CFU/ml: 7.37

## CCN(CC)C(=S)SSC(=S)N(CC)CC [DISULFIRAM]
[3]
  MIC: 8 µg/mL (≈ 27 µM)

## CCN(CC)C(=S)[S-].[Na+] [DITIOCARB SODIUM]
[4]
  log10CFU/ml: 0.14
[5]
  log10CFU/ml: 1.73
[6]
  MIC: 1 µg/mL
[7]
  log10CFU/ml: 0.96
[8]
  log10CFU/ml: 2.07
[3]
  MBC: 8 µg/mL
  MIC: 4 µg/mL
[9]
  log10CFU/ml: 3.18
[10]
  log10CFU/ml: 7.22
[11]
  Activity: Active
[12]
  log10CFU/ml: 1.28
[13]
  log10CFU/ml: 6.03
[14]
  Activity: Active

## NNC(=O)c1ccncc1 [ISONIAZID]
[3]
  MBC: 0.12 µg/mL (≈ 0.875 µM)
  MIC: 0.06 µg/mL (≈ 0.438 µM)
[15]
  Activity: 0.25 µg/mL
[16]
  Activity: Active

## NC(=O)c1cnccn1 [PYRAZINAMIDE]
[17]
  log10CFU/ml: 0.26
[18]
  log10CFU/ml: 0.08

## S=C(S)N1CCCC1 [PYRROLIDINE DITHIOCARBAMATE]
[4]
  log10CFU/ml: 0.06
[19]
  MIC: 16 µg/mL (≈ 109 µM)
[7]
  log10CFU/ml: 0.42
[20]
  log10CFU/ml: 0.94
[21]
  log10CFU/ml: 0.89
[3]
  MBC: 0.5 µg/mL (≈ 3.4 µM)
  MIC: 0.125 µg/mL (≈ 0.849 µM)
[15]
  Activity: 0.5 µg/mL
[22]
  log10CFU/ml: 2.65
[23]
  log10CFU/ml: 0.13
[24]
  log10CFU/ml: 6.19
[25]
  log10CFU/ml: 7.1
Escherichia coli
  MIC: 64 µg/mL (≈ 435 µM)

## CO[C@H]1/C=C/O[C@@]2(C)Oc3c(C)c(O)c4c(O)c(c(/C=N/N5CCN(C)CC5)c(O)c4c3C2=O)NC(=O)/C(C)=C\C=C\[C@H](C)[C@H](O)[C@@H](C)[C@@H](O)[C@@H](C)[C@H](OC(C)=O)[C@@H]1C [RIFAMPIN]
[26]
  log10CFU/ml: 1.32
[27]
  log10CFU/ml: 6.36
[28]
  log10CFU/ml: 4.63
